Reference: ChEMBL document CHEMBL1201861, “Genomics of Drug Sensitity in Cancer screening data, Wellcome Trust Sanger Institute”

What was measured:
[1] = system: AU565; test: cells; type: functional, cell-based, Homo sapiens; details: Homo sapiens, AU565;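 also: cell viability assay measuring growth inhibition of human AU565 cells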
Description: SANGER: Inhibition of human AU565 cell growth in a cell viability assay.

[2] = system: ECC4; test: cells; type: functional, cell-based, Homo sapiens; details: Homo sapiens, ECC4
Description: SANGER: Inhibition of human ECC4 cell growth in a cell viability assay.

[3] = system: L-540; test: cells; type: functional, cell-based, Homo sapiens; details: Homo sapiens, L-540;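 also: growth inhibition of the human L-540 cell line, read out with a viability assay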
Description: SANGER: Inhibition of human L-540 cell growth in a cell viability assay.

[4] = system: RPMI 8402; test: SANGER: Inhibition of human RPMI-8402 cell growth in a cell viability assay.; type: functional, cell-based; details: Homo sapiens, RPMI 8402; read-out: IC50
[5] = system: SCC-25; test: cells; type: functional, cell-based, Homo sapiens; details: Homo sapiens, SCC-25;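 also: growth inhibition of SCC-25 cells, measured with a cell viability assay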
Description: SANGER: Inhibition of human SCC-25 cell growth in a cell viability assay.

[6] = system: NCI-H522; test: cells; type: functional, cell-based, Homo sapiens; details: Homo sapiens, NCI-H522;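 also: cell viability assay measuring growth inhibition of human NCI-H522 cells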
Description: SANGER: Inhibition of human NCI-H522 cell growth in a cell viability assay.

[7] = system: A-427; test: cells; type: functional, cell-based, Homo sapiens; details: Homo sapiens, A-427;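 also: growth inhibition of human A-427 cells, read out by a cell viability assay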
Description: SANGER: Inhibition of human A427 cell growth in a cell viability assay.

[8] = system: NCI-H187; test: cells; type: functional, cell-based, Homo sapiens; details: Homo sapiens, NCI-H187;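 also: growth inhibition of NCI-H187 cells, read out as cell viability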
Description: SANGER: Inhibition of human NCI-H187 cell growth in a cell viability assay.

[9] = system: OAW-28; test: cells; type: functional, cell-based, Homo sapiens; details: Homo sapiens, OAW-28;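 also: growth inhibition of OAW-28 cells, read out with a cell viability assay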
Description: SANGER: Inhibition of human OAW-28 cell growth in a cell viability assay.

[10] = system: MCF7; test: cells; type: functional, cell-based, Homo sapiens; details: Homo sapiens, MCF7;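 also: growth inhibition of human MCF7 cells, read out with a cell viability assay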
Description: SANGER: Inhibition of human MCF7 cell growth in a cell viability assay.

[11] = system: DG-75; test: cells; type: functional, cell-based, Homo sapiens; details: Homo sapiens, DG-75;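 also: growth inhibition of DG-75 cells, read out with a cell viability assay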
Description: SANGER: Inhibition of human DG-75 cell growth in a cell viability assay.

[12] = system: THP-1; test: cells; type: functional, cell-based, Homo sapiens; details: Homo sapiens, THP-1;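 also: growth inhibition of THP-1 cells, read out via a cell viability assay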
Description: SANGER: Inhibition of human THP-1 cell growth in a cell viability assay.

[13] = system: SW1417; test: cells; type: functional, cell-based, Homo sapiens; details: Homo sapiens, SW1417;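 also: growth inhibition of human SW1417 cells, read out with a cell viability assay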
Description: SANGER: Inhibition of human SW1417 cell growth in a cell viability assay.

[14] = system: HO-1-N-1; test: cells; type: functional, cell-based, Homo sapiens; details: Homo sapiens, HO-1-N-1;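 also: growth inhibition of human HO-1-N-1 cells, read out with a cell viability assay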
Description: SANGER: Inhibition of human HO-1-N-1 cell growth in a cell viability assay.

[15] = system: HLE; test: cells; type: functional, cell-based, Homo sapiens; details: Homo sapiens, HLE
Description: SANGER: Inhibition of human HLE cell growth in a cell viability assay.

[16] = system: GDM-1; test: cells; type: functional, cell-based, Homo sapiens; details: Homo sapiens, GDM-1;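 also: cell viability readout used to measure growth inhibition of human GDM-1 cells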
Description: SANGER: Inhibition of human GDM-1 cell growth in a cell viability assay.

[17] = system: RERF-LC-MS; test: cells; type: functional, cell-based, Homo sapiens; details: Homo sapiens, RERF-LC-MS;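 also: growth inhibition of human RERF-LC-MS cells, read out by a cell viability assay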
Description: SANGER: Inhibition of human RERF-LC-MS cell growth in a cell viability assay.

[18] = system: YT; test: cells; type: functional, cell-based, Homo sapiens; details: Homo sapiens, YT
Description: SANGER: Inhibition of human YT cell growth in a cell viability assay.

[19] = system: NCI-H2030; test: cells; type: functional, cell-based, Homo sapiens; details: Homo sapiens, NCI-H2030;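 also: growth inhibition of human NCI-H2030 cells, read out by a cell viability assay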
Description: SANGER: Inhibition of human NCI-H2030 cell growth in a cell viability assay.

[20] = system: SKG-IIIa; test: cells; type: functional, cell-based, Homo sapiens; details: Homo sapiens, SKG-IIIa
Description: SANGER: Inhibition of human SKG-IIIa cell growth in a cell viability assay.

[21] = system: GCT; test: cells; type: functional, cell-based, Homo sapiens; details: Homo sapiens, GCT;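 also: GCT cell line proliferation inhibition, read out with a cell viability assay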
Description: SANGER: Inhibition of human GCT cell growth in a cell viability assay.

[22] = system: MIA PaCa-2; test: cells; type: functional, cell-based, Homo sapiens; details: Homo sapiens, MIA PaCa-2;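 also: growth inhibition of MIA PaCa-2 cells, read out with a cell viability assay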
Description: SANGER: Inhibition of human MIA-PaCa-2 cell growth in a cell viability assay.

[23] = system: SK-OV-3; test: cells; type: functional, cell-based, Homo sapiens; details: Homo sapiens, SK-OV-3;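 also: growth inhibition of SK-OV-3 human cells, read out with a cell viability assay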
Description: SANGER: Inhibition of human SK-OV-3 cell growth in a cell viability assay.

[24] = system: U2OS; test: cells; type: functional, cell-based, Homo sapiens, U-2-OS; details: Homo sapiens, U2OS;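 also: growth inhibition of human U-2-OS cells, determined with a cell viability assay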
Description: SANGER: Inhibition of human U-2-OS cell growth in a cell viability assay.

[25] = system: HCC1395; test: cells; type: functional, cell-based, Homo sapiens; details: Homo sapiens, HCC1395;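 also: growth inhibition of HCC1395 cells, read out by a cell viability assay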
Description: SANGER: Inhibition of human HCC1395 cell growth in a cell viability assay.

[26] = system: A673; test: cells; type: functional, cell-based, Homo sapiens; details: Homo sapiens, A673;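 also: growth inhibition of human A673 cells, read out through a cell viability assay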
Description: SANGER: Inhibition of human A673 cell growth in a cell viability assay.

[27] = system: NCI-H1563; test: cells; type: functional, cell-based, Homo sapiens; details: Homo sapiens, NCI-H1563;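 also: growth inhibition of human NCI-H1563 cells, read out with a cell viability assay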
Description: SANGER: Inhibition of human NCI-H1563 cell growth in a cell viability assay.

[28] = system: SNU-449; test: cells; type: functional, cell-based, Homo sapiens; details: Homo sapiens, SNU-449
Description: SANGER: Inhibition of human SNU-449 cell growth in a cell viability assay.

[29] = system: MDA-MB-231; test: cells; type: functional, cell-based, Homo sapiens; details: Homo sapiens, MDA-MB-231
Description: SANGER: Inhibition of human MDA-MB-231 cell growth in a cell viability assay.

[30] = system: P31-FUJ; test: cells; type: functional, cell-based, Homo sapiens; details: Homo sapiens, P31-FUJ;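 also: growth inhibition of P31-FUJ cells, read out with a viability assay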
Description: SANGER: Inhibition of human P31-FUJ cell growth in a cell viability assay.

[31] = system: G-402; test: cells; type: functional, cell-based, Homo sapiens; details: Homo sapiens, G-402
Description: SANGER: Inhibition of human G-402 cell growth in a cell viability assay.

[32] = system: JIYOYE; test: cells; type: functional, cell-based, Homo sapiens; details: Homo sapiens, JIYOYE
Description: SANGER: Inhibition of human JiyoyeP-2003 cell growth in a cell viability assay.

[33] = system: NCI-H2122; test: cells; type: functional, cell-based, Homo sapiens; details: Homo sapiens, NCI-H2122
Description: SANGER: Inhibition of human NCI-H2122 cell growth in a cell viability assay.

[34] = system: COLO-680N; test: cells; type: functional, cell-based, Homo sapiens; details: Homo sapiens, COLO-680N;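 also: cell viability assay used to measure inhibition of COLO-680N cell growth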
Description: SANGER: Inhibition of human COLO-680N cell growth in a cell viability assay.

[35] = system: HSC-4; test: cells; type: functional, cell-based, Homo sapiens; details: Homo sapiens, HSC-4
Description: SANGER: Inhibition of human HSC-4 cell growth in a cell viability assay.

[36] = system: 647-V; test: cells; type: functional, cell-based, Homo sapiens; details: Homo sapiens, 647-V;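 also: growth inhibition of 647-V cells, read out with a cell viability assay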
Description: SANGER: Inhibition of human 647-V cell growth in a cell viability assay.

[37] = system: UMUC3; test: cells; type: functional, cell-based, Homo sapiens; details: Homo sapiens, UMUC3;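 also: growth inhibition of human UM-UC-3 cells, read out with a cell viability assay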
Description: SANGER: Inhibition of human UM-UC-3 cell growth in a cell viability assay.

[38] = system: A2780; test: cells; type: functional, cell-based, Homo sapiens; details: Homo sapiens, A2780;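 also: growth inhibition of A2780 cells, read out with a cell viability assay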
Description: SANGER: Inhibition of human A2780 cell growth in a cell viability assay.

[39] = system: T98G; test: cells; type: functional, cell-based, Homo sapiens; details: Homo sapiens, T98G;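 also: growth inhibition of T98G cells, read out by a cell viability assay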
Description: SANGER: Inhibition of human T98G cell growth in a cell viability assay.

[40] = system: Huh-7; test: cells; type: functional, cell-based, Homo sapiens; details: Homo sapiens, Huh-7;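 also: HuH-7 cell growth inhibition, read out with a cell viability assay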
Description: SANGER: Inhibition of human HuH-7 cell growth in a cell viability assay.

[41] = system: KYSE-270; test: cells; type: functional, cell-based, Homo sapiens; details: Homo sapiens, KYSE-270;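 also: cell growth inhibition measured with a viability assay in the human KYSE-270 line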
Description: SANGER: Inhibition of human KYSE-270 cell growth in a cell viability assay.

[42] = system: NCI-H596; test: cells; type: functional, cell-based, Homo sapiens; details: Homo sapiens, NCI-H596;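 also: growth inhibition of NCI-H596 cells, read out with a cell viability assay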
Description: SANGER: Inhibition of human NCI-H596 cell growth in a cell viability assay.

[43] = system: IST-SL2; test: cells; type: functional, cell-based, Homo sapiens; details: Homo sapiens, IST-SL2;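 also: growth inhibition of human IST-SL2 cells, read out by a cell viability assay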
Description: SANGER: Inhibition of human IST-SL2 cell growth in a cell viability assay.

[44] = system: BL-70; test: SANGER: Inhibition of human BL-70 cell growth in a cell viability assay.; type: functional, cell-based; details: Homo sapiens, BL-70
[45] = system: HCC1806; test: cells; type: functional, cell-based, Homo sapiens; details: Homo sapiens, HCC1806;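 also: growth inhibition of the cancer cell line, determined with a cell viability assay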
Description: SANGER: Inhibition of human HCC1806 cell growth in a cell viability assay.

[46] = system: Hs-578T; test: cells; type: functional, cell-based, Homo sapiens; details: Homo sapiens, Hs-578T
Description: SANGER: Inhibition of human Hs-578-T cell growth in a cell viability assay.

[47] = system: BOKU; test: cells; type: functional, cell-based, Homo sapiens; details: Homo sapiens, BOKU
Description: SANGER: Inhibition of human BOKU cell growth in a cell viability assay.

Compound: Cc1cc([N+](=O)[O-])ccc1NS(=O)(=O)c1cc(Cl)ccc1Cl
- IC50 [1]: 2.34 µM
- IC50 [2]: > 32 µM
- IC50 [3]: 9.46 µM
- IC50 [4]: 6.85 µM
- IC50 [5]: 10.9 µM
- IC50 [6]: 1.4 µM
- IC50 [7]: 0.23 µM
- IC50 [8]: 12.3 µM
- IC50 [9]: 24.7 µM
- IC50 [10]: 2.64 µM
- IC50 [11]: > 32 µM
- IC50 [12]: 19.6 µM
- IC50 [13]: 11.4 µM
- IC50 [14]: > 32 µM
- IC50 [15]: 1.99 µM
- IC50 [16]: 8.37 µM
- IC50 [17]: 1.49 µM
- IC50 [18]: 1.83 µM
- IC50 [19]: 4.43 µM
- IC50 [20]: > 32 µM
- IC50 [21]: 2.93 µM
- IC50 [22]: 0.601 µM
- IC50 [23]: 9.13 µM
- IC50 [24]: > 32 µM
- IC50 [25]: 0.381 µM
- IC50 [26]: 3 µM
- IC50 [27]: 9.47 µM
- IC50 [28]: 5.94 µM
- IC50 [29]: 14.3 µM
- IC50 [30]: 7.77 µM
- IC50 [31]: 4.65 µM
- IC50 [32]: 6.6 µM
- IC50 [33]: 1.17 µM
- IC50 [34]: 12.5 µM
- IC50 [35]: 12.2 µM
- IC50 [36]: 3.09 µM
- IC50 [37]: 1.67 µM
- IC50 [38]: 5.49 µM
- IC50 [39]: 10.6 µM
- IC50 [40]: 1.57 µM
- IC50 [41]: 3.03 µM
- IC50 [42]: 7.95 µM
- IC50 [43]: 8.24 µM
- IC50 [44]: 5.1 µM
- IC50 [45]: 20.5 µM
- IC50 [46]: 11.5 µM
- IC50 [47]: 4.36 µM

Compound: Oc1ccc2ccccc2c1SSc1c(O)ccc2ccccc12
- IC50 [1]: 31.2 µM
- IC50 [2]: > 32 µM
- IC50 [3]: > 32 µM
- IC50 [4]: 5.77 µM
- IC50 [5]: > 32 µM
- IC50 [6]: > 32 µM
- IC50 [7]: > 32 µM
- IC50 [8]: > 32 µM
- IC50 [9]: > 32 µM
- IC50 [10]: 2.18 µM
- IC50 [11]: > 32 µM
- IC50 [12]: > 32 µM
- IC50 [13]: > 32 µM
- IC50 [14]: > 32 µM
- IC50 [15]: 4.52 µM
- IC50 [16]: > 32 µM
- IC50 [17]: > 32 µM
- IC50 [18]: 1.39 µM
- IC50 [19]: > 32 µM
- IC50 [20]: > 32 µM
- IC50 [21]: > 32 µM
- IC50 [22]: 18.1 µM
- IC50 [23]: > 32 µM
- IC50 [24]: > 32 µM
- IC50 [25]: > 32 µM
- IC50 [26]: > 32 µM
- IC50 [27]: > 32 µM
- IC50 [28]: > 32 µM
- IC50 [29]: > 32 µM
- IC50 [30]: > 32 µM
- IC50 [31]: > 32 µM
- IC50 [32]: 7.26 µM
- IC50 [33]: > 32 µM
- IC50 [34]: > 32 µM
- IC50 [35]: > 32 µM
- IC50 [36]: > 32 µM
- IC50 [37]: > 32 µM
- IC50 [38]: 28.4 µM
- IC50 [39]: > 32 µM
- IC50 [40]: > 32 µM
- IC50 [41]: > 32 µM
- IC50 [42]: > 32 µM
- IC50 [43]: 20.7 µM
- IC50 [44]: 2.04 µM
- IC50 [45]: > 32 µM
- IC50 [46]: > 32 µM
- IC50 [47]: > 32 µM
